One data set deals with T1, α4β1 integrin (Homo sapiens, UniProt P05556+P13612).
T1 construct: adding a volume of 80 μL consisted of 1.3×10^5 Molt4 cells; endogenous in cells; host or cells: Molt4 T-cell leukemia cells
Put plainly: Molt4 T-cell leukemia adhesion assay (inhibition of α4β1-mediated cell adhesion to CS-1 peptide). Format: cell-based. The text has this: α4β1 integrins are cell surface heterodimeric glycoproteins that mediate cell adhesion to vascular cell adhesion molecule-1 (VCAM-1 or CD 106) as well as to extracellular matrix (ECM) protein fibronectin (FN). Integrin expression and function depend on cell activation. The dynamic changes in integrin affinity, avidity, or activation state are implicated in cell migration, survival and apoptosis, cancer development and metastasis. Binding affinities (IC50s) of the ligands were studied in a Molt4 T-cell leukemia adhesion assay by inhibiting the α4β1-mediated cell adhesion to CS-1 peptide ([…]), which is the binding motif of fibronectin to α4β1 receptor.
General Procedure for Cell Adhesion Assay:
96-well plates were prepared by coating them with 5 μg/mL neutravidin for a one-hour period, followed by adding […] biotin-conjugated CS-1 peptide. The wells were then blocked with 1% […] in phosphate buffer saline (PBS) solution, followed by adding a volume of 80 μL consisted of 1.3×10^5 Molt4 cells, and finally different dilutions of tested ligands in binding buffer (1 mM Mn^2+ TBS), were added to each well. To allow binding, the plates were incubated for 30 min at 37° C., followed by washing of unbound cells with PBS. Bound cells were fixed with 10% formalin buffered in phosphate for 30 min and stained with 0.5% crystal violet. After washing and drying at room temperature, the dye was dissolved in 1% SDS, and absorbance at 570 nm was measured using a 96-well TECAN OD UV/Vis spectrophotometer. Inhibition was calculated as a percentage resulting from the concentration-dependent curve.

For data set [1] the following is noted: compound by itself; cited from earlier work.
The conditions of data set [2]: xenograft model, optical and radioimaging; cited from earlier work.

This is an account of results in patent US8486370B2, “Heterocyclic ligands for integrin imaging and therapy” (The Regents of the University of California, priority 2006, dated 2013).

SMILES strings stand for the structures. pIC50: −log10 of the molar value. Read-outs that look alike come from different tables or passages of the source.

T1 sequence (P13612 34-1032): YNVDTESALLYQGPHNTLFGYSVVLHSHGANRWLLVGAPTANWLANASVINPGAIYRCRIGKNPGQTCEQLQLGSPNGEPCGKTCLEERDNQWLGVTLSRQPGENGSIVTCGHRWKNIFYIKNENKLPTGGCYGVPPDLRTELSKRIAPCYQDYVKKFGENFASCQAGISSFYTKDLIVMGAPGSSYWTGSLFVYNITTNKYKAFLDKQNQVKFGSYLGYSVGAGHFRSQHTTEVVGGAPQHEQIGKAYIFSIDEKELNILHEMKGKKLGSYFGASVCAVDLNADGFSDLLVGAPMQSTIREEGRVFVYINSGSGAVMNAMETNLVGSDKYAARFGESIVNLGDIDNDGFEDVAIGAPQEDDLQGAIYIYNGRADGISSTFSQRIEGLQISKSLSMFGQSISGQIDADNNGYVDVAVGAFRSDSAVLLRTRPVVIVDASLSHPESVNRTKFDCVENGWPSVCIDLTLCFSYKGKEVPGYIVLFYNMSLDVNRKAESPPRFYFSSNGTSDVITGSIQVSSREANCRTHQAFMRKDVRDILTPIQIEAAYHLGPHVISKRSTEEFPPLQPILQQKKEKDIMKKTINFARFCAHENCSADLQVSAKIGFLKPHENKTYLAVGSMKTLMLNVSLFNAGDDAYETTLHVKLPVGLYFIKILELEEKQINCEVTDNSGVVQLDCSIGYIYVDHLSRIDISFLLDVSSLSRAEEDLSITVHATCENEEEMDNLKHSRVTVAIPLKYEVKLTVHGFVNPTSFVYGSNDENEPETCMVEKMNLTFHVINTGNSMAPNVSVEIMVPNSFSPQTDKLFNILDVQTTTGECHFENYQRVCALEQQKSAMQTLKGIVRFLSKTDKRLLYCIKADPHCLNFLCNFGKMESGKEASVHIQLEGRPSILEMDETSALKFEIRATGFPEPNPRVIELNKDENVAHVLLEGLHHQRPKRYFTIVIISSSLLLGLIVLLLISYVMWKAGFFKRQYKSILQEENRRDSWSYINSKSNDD
T1 sequence (P05556 21-798): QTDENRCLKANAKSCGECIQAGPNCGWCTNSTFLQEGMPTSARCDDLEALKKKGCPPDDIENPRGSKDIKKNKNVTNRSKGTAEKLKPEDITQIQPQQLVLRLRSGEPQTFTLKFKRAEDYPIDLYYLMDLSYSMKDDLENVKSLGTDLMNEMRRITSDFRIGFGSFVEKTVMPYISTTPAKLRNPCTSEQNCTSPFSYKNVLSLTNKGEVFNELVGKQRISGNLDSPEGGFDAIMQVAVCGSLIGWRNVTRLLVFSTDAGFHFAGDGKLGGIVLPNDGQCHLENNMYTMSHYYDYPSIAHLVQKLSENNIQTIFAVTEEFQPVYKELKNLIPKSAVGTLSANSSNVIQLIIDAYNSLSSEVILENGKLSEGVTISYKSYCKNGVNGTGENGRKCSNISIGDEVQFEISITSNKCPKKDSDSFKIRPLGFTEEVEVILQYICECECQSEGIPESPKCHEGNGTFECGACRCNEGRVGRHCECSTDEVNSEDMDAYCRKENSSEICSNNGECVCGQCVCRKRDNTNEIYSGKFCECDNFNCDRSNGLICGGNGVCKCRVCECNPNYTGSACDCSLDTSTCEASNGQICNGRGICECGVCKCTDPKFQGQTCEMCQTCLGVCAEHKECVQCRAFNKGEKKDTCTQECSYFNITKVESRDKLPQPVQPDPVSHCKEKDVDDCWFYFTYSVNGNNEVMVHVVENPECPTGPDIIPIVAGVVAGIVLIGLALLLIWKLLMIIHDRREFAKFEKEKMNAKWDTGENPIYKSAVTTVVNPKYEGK

Turning to `NC(=O)C1(NC(=O)C(CCCC(=O)O)NC(=O)C(CCCCNC(=O)C=Cc2cccnc2)NC(=O)Cc2ccc(Nc3nc4ccccc4s3)cc2)CCCCC1` (stereo not drawn) [KLCA14], the pIC50 (commonly −log10 of the IC50, conventionally taken in molar units) against α4β1 integrin was 10.28.

`NC(=O)C1(NC(=O)[C@H](CCCC(=O)O)NC(=O)[C@H](CCCCNC(=O)/C=C/c2cccnc2)NC(=O)c2ccc(Nc3nc4cc(Br)ccc4[nH]3)cc2)CCCCC1` [KLCA12] showed a negative-log IC50 (pIC50) against α4β1 integrin (Molt4 cells, adhesion to biotin-conjugated CS-1 peptide, 1 mM Mn2+ TBS, 30 min at 37° C.) of 9.94.

Molecule `NC(=O)C1(NC(=O)C(CCCC(=O)O)NC(=O)C(CCCCNC(=O)C=Cc2cccnc2)NC(=O)Cc2ccc(Nc3nc4ccccc4o3)cc2)CCCCC1` (stereo not drawn) [KLCA16] had a pIC50 on α4β1 integrin of 8.70.

In the case of `Cc1ccccc1NC(=O)Nc1ccc(CC(=O)N[C@@H](CCCCNC(=O)/C=C/c2cccnc2)C(=O)N[C@@H](CCCC(=O)O)C(=O)NC2(C(N)=O)CCCCC2)cc1` [LLP2A], the water solubility result in data set [1] was “not very water soluble”. The “uptake in the kidneys” value in data set [2] is recorded as “rather high uptake in the kidneys”.

In the case of `Cc1cccc2oc(Nc3ccc(CC(=O)NC(CCCCNC(=O)C=Cc4cccnc4)C(=O)NC(CCCC(=O)O)C(=O)NC4(C(N)=O)CCCCC4)cc3)nc12` (stereo not drawn) [KLCA15], at α4β1 integrin, the pIC50 was 8.40.
